Target: T1, human FXR (NR1H4) (Homo sapiens, UniProt Q96RI1)
T1 construct: host or cells: CHO (Chinese hamster ovary) cells
T1 sequence (Q96RI1 1-486): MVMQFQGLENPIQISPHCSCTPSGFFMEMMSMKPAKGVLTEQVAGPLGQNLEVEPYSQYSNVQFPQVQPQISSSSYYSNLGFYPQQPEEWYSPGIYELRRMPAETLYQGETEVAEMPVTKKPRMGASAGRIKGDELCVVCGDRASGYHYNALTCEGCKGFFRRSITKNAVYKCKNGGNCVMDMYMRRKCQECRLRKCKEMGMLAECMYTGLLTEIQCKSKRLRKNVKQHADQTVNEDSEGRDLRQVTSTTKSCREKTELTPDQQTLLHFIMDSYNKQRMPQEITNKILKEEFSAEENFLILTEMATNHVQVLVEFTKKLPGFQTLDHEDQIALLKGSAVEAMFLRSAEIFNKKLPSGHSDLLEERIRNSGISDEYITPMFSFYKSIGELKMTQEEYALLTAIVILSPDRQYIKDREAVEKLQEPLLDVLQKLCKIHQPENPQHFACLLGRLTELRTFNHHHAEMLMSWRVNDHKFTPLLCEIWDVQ
Assay: Human FXR (NR1H4) Assay (Gal4 promoter driven luciferase reporter transactivation, Indigo Bioscience kit IB00601)
Format: cell-based
Conditions: for EC50: Human FXR (NR1H4) reporter assay, CHO cells expressing human NR1H4, potency ranges; for Efficacy (%): efficacy normalized to CDCA set as 100%
Description: Human FXR (NR1H4) Assay Determination of a ligand mediated Gal4 promoter driven transactivation to quantify ligand binding mediated activation of FXR. FXR Reporter Assay kit purchased from Indigo Bioscience (Catalogue number: IB00601) to determine the potency and efficacy of compound developed by Enanta that can induce FXR activation. The principle application of this reporter assay system is to quantify functional activity of human FXR. The assay utilizes non-human mammalian cells, CHO (Chinese hamster ovary) cells engineered to express human NR1H4 protein (referred to as FXR). Reporter cells also incorporate the cDNA encoding beetle luciferase which catalyzes the substrates and yields photon emission. Luminescence intensity of the reaction is quantified using a plate-reading luminometer, Envision. Reporter Cells include the luciferase reporter gene functionally linked to an FXR responsive promoter. Thus, quantifying changes in luciferase expression in the treated reporter cells provides a sensitive surrogate measure of the changes in FXR activity. […] The assay is according to the manufacturer's instructions. […] Retrieve Reporter Cells from −80° C. storage. Perform a rapid thaw of the frozen cells by transferring a 10 ml volume of 37° C. cell recovery medium into the tube of frozen cells. Recap the tube of Reporter Cells and immediately place it in a 37° C. water bath for 5-10 minutes. Retrieve the tube of Reporter Cell Suspension from the water bath. Sanitize the outside surface of the tube with a 70% alcohol swab, and then transfer it into the cell culture hood. Dispense 90 μl of cell suspension into each well of the 96-well Assay Plate. Transfer the plate into 37° C. incubator, allowing the cells adherent to the bottom of the well. Dilute compounds in Dilution Plate (DP), and administrate to cells at Assay Plate (AP). DMSO content of the samples was kept at 0.2%. Cells were incubated for additional 22 hours before luciferase activities were measured. Thirty minutes before intending to quantify FXR activity, remove Detection Substrate and Detection Buffer from the refrigerator and place them in a low-light area so that they may equilibrate to room temperature. Remove the plate's lid and discard all media contents by ejecting it into an appropriate waste container. Gently tap the inverted plate onto a clean absorbent paper towel to remove residual droplets. Cells will remain tightly adhered to well bottoms. Add 100 μl of luciferase detection reagent to each well of the assay plate. Allow the assay plate to rest at room temperature for at least 5 minutes following the addition of LDR. Set the instrument (Envision) to perform a single 5 second “plate shake” prior to reading the first assay well. Read time may be 0.5 second (500 mSec) per well.

EC50 [µM] | Efficacy (%) | SMILES
0.1 to 1 | 1.2 | CC(C)c1onc(-c2c(Cl)cccc2Cl)c1COc1ccc(-c2ccc3c(NC(=O)NS(=O)(=O)C4CC4)cccc3c2)cc1 [Compound 11]
0.1 to 1 | 1.3 | CC(C)c1onc(-c2c(Cl)cccc2Cl)c1COc1ccc(-c2ccc3c(C(=O)NS(=O)(=O)N(C)C)cccc3c2)cc1 [Compound 90]
0.1 to 1 | 117 | CC(C)c1onc(-c2c(Cl)cccc2Cl)c1COc1ccc(-c2ccc3c(NC(=O)NS(=O)(=O)c4ccccc4)cccc3c2)cc1 [Compound 16]
0.1 to 1 | 220 | CC(C)c1onc(-c2c(Cl)cccc2Cl)c1COc1ccc(-c2ccc3c(C(=O)O)cccc3c2)cc1 [Compound (1), reference compound]

Reference: patent US10080743B2, “Isoxazole derivatives as FXR agonists and methods of use thereof” (Enanta Pharmaceuticals, Inc., priority 2016, dated 2018)
